In the first assay the test system is PD-1/PD-L1 interaction. In words: Cell based PD-1/PD-L1 NFAT reporter assay. Details: species or system human. Particulars: Homo sapiens, 6 h, PD-1/NFAT-Reporter-Jurkat cells co-cultured with TCR activator/PD-L1-CHO cells; 6 hour incubation; luciferase; calibrated to Atezolizumab 10 nM; read-out: Absolute EC50. How it is done: Cell Based PD-1/PD-L1 NFAT Reporter Assay
Compounds of the present patent were tested in a cell based PD-1/PD-L1 NFAT reporter assay.
The cell-based luciferase reporter assay is used for monitoring the PD-1/PD-L1 inhibitor by characterizing the biological activity of PD-1: PD-L1 interactions in cellular context. PD-1/NFAT-Reporter-Jurkat cells stably over-expressing human PD-1 with NFAT reporter are used as effector cells. TCR activator/PD-L1—CHO cells over-expressing PD-L1 and an engineered T cell receptor (TCR) activator are used as target cells. When these two cells are co-cultivated, TCR complexes on effector cells are activated by TCR activator on target cells, resulting in expression of the NFAT luciferase reporter. However, PD1 and PD-L1 (or PD-L2) ligation prevents TCR activation and suppresses the NFAT-responsive luciferase activity. This inhibition can be specifically reversed by anti-PD1 or anti-PD-L1 inhibitors. PD1/PD-L1 inhibitors block PD1:PD-L1 interaction and promote TCR activation, resulting in reactivation of the NFAT responsive luciferase reporter.
PD-1/NFAT—Reporter—Jurkat cell (Cat: 60535) and TCR activator/PD-L1—CHO cell (Cat: 60536) were purchased from BPS Bioscience. Anti-human PD-L1 antibody (Atezolizumab, Cat: A2004) was purchased from Selleck; luciferase reporter gene expression detection kit (ONE-Glo™ Luciferase Assay System, Cat: E6120) was purchased from Promega; multifunction plate reader (SpectraMax i3x) was purchased from Molecular Devices.
PD-1/NFAT—Reporter—Jurkat cells and TCR activator/PD-L1—CHO cells were cultured in recommended media respectively.
Harvest TCR activator/PD-L1-CHO cells from culture and seed cells at a density of 35,000 cells per well into 96-well microplate in 100 µl of growth medium. Incubate cells at 37° C. in a CO2 incubator overnight. Next day, discard the culture media, add diluted compound in assay medium for 30 min. Anti-PD-L1 antibody (Atezolizumab, final concentration 10 nM) and 0.1% DMSO were the positive and negative control, respectively. Harvest the PD-1/NFAT-reporter-Jurkat cells by centrifugation and add to the wells. After 6 hour incubation, perform luciferase assay using the ONE-Glo™ Luciferase Assay System, following the manufacturer's assay protocol.
Anti-PD-L1 antibody (Atezolizumnab, 10 nM) was used as positive control to calibrate the inhibition rate using the following equation: % inhibition=(Sample luminescence/Average vehicle group luminescence−1)/(Average PD-L1 group luminescence/Average vehicle group luminescence−1)×100%.
For orientation: Reporter assays use an easily measured gene product as a stand-in for the process of interest.
Regarding `N#Cc1cc(COc2cc(OCc3cccc(-c4cccc5c4cnn5CCCN4CC[C@@H](O)C4)c3Br)c(Cl)cc2CN[C@@H](CO)C(=O)O)ccn1` [Compound 1], the EC50 was found to be 340 nM. On the same count and under the same terms, the same measure for `N#Cc1cncc(COc2cc(OCc3cccc(-c4cccc5c4ccn5CCCN4CC[C@@H](O)C4)c3Br)c(Cl)cc2CN[C@@H](CO)C(=O)O)c1` [Compound 3]: 2380 nM; for `Cc1nn(CCCN2CC[C@@H](O)C2)c2cccc(-c3cccc(COc4cc(OCc5cncc(C#N)c5)c(CN[C@@H](CO)C(=O)O)cc4Cl)c3Br)c12` [Compound 4]: 5490 nM. The same measure, in the same setting: the same measure for `N#Cc1cncc(COc2cc(OCc3cccc(-c4cccc5c4cnn5CCCN4CCC(O)CC4)c3Br)c(Cl)cc2CN[C@@H](CO)C(=O)O)c1` [Compound 6]: 266 nM; for `CC(CO)(CO)NCc1cc(Cl)c(OCc2cccc(-c3cccc4c3cnn4CCCCN3CC[C@@H](O)C3)c2Br)cc1OCc1cncc(C#N)c1` [Compound 7]: 338 nM; for `N#Cc1cncc(COc2cc(OCc3cccc(-c4cccc5c4cnn5CCCCCN4CC[C@@H](O)C4)c3Br)c(Cl)cc2CN[C@@H](CO)C(=O)O)c1` [Compound 9]: 367 nM. The same measure, in the same setting: under `CC(CO)(NCc1cc(Cl)c(OCc2cccc(-c3cccc4c3cnn4CCCN3CC[C@@H](O)C3)c2Br)cc1OCc1cncc(C#N)c1)C(=O)O` (stereo partly drawn) [Compound 10] stands 412 nM; under `CC(CO)(NCc1cc(Cl)c(OCc2cccc(-c3cccc4c3cnn4CCCCN3CC[C@@H](O)C3)c2Br)cc1OCc1cncc(C#N)c1)C(=O)O` (stereo partly drawn) [Compound 12], 289 nM; under `CC(CO)(CO)NCc1cc(Cl)c(OCc2cccc(-c3cccc4c3cnn4CCCN3CCC(O)CC3)c2Br)cc1OCc1cncc(C#N)c1` [Compound 13], 242 nM. As for `CC(CO)(CO)NCc1cc(Cl)c(OCc2cccc(-c3cccc4c3cnn4[C@H]3CC[C@H](N4CC[C@@H](O)C4)CC3)c2Br)cc1OCc1cncc(C#N)c1` [Compound 14], the EC50 was found to be 323 nM.

For `CC(CO)(CO)NCc1cc(Cl)c(OCc2cccc(-c3cccc4c3cnn4CCCCN(CCO)CCO)c2Br)cc1OCc1cncc(C#N)c1` [Compound 15], the EC50 stood at 3240 nM. Same read-out and setting: under `CC(CO)(CO)NCc1cc(Cl)c(OCc2cccc(-c3cccc4c3cnn4CCCCNCCO)c2Br)cc1OCc1cncc(C#N)c1` [Compound 16] stands 9360 nM; under `CC1(C)OCC(N2CCC(n3ncc4c(-c5cccc(COc6cc(OCc7cncc(C#N)c7)c(CN[C@@H](CO)C(=O)O)cc6Cl)c5Br)cccc43)CC2)CO1` [Compound 17], 1760 nM; under `C[C@@](CO)(NCc1cc(Cl)c(OCc2cccc(-c3cccc4c3cnn4CCCN3CC[C@@H](O)C3)c2Br)cc1OCc1cncc(C#N)c1)C(=O)O` [Compound 18], 235 nM. On the same count and under the same terms, the same measure for `N#Cc1cncc(COc2cc(OCc3cccc(-c4cccc5c4cnn5CC4CCC(N5CC[C@@H](O)C5)CC4)c3Br)c(Cl)cc2CN[C@@H](CO)C(=O)O)c1` (stereo partly drawn) [Compound 19]: 764 nM. On the same count and under the same terms, under `CC(CO)(CO)NCc1cc(Cl)c(OCc2cccc(-c3cncc4c3cnn4CCCCN3CC[C@@H](O)C3)c2Br)cc1OCc1cncc(C#N)c1` [Compound 21] stands 3540 nM; under `N#Cc1cncc(COc2cc(OCc3cccc(-c4cccc5c4cnn5C4CCN(C(CO)CO)CC4)c3Br)c(Cl)cc2CN[C@@H](CO)C(=O)O)c1` [Compound 22], 1130 nM. For `N#Cc1cncc(COc2cc(OCc3cccc(-c4cccc5c4cnn5CCCCN4CCC[C@H]4C(=O)O)c3Br)c(Cl)cc2CN[C@@H](CO)C(=O)O)c1` [Compound 23], the EC50 worked out at 608 nM.

For the compound `N#Cc1cncc(COc2cc(OCc3cccc(-c4cccc5c4cnn5CCCN4CC[C@@H](O)C4)c3C3CC3)c(Cl)cc2CN[C@@H](CO)C(=O)O)c1` [Compound 24], the EC50 was over 10000 nM.

For `Cc1c(COc2cc(OCc3cncc(C#N)c3)c(CNC(C)(CO)CO)cc2Cl)cccc1-c1cccc2c1cnn2CCCN1CC[C@@H](O)C1` [Compound 25], the EC50 is 138 nM. Still for that read-out and setting: the same measure for `Cc1c(COc2cc(OCc3cncc(C#N)c3)c(CN[C@@H](CO)C(=O)O)cc2Cl)cccc1-c1ccnc2c1cnn2CCCCN1CC[C@@H](O)C1` [Compound 26]: 1830 nM; for `Cc1c(COc2cc(OCc3cncc(C#N)c3)c(CN[C@@H](CO)C(=O)O)cc2Cl)cccc1-c1cccc2c1cnn2CCCCN1CC[C@@H](O)C1` [Compound 27]: 643 nM; for `N#Cc1cncc(COc2cc(OCc3cccc(-c4cccc5c4cnn5CCCCN4CC[C@@H](O)C4)c3[N+](=O)[O-])c(Cl)cc2CN[C@@H](CO)C(=O)O)c1` [Compound 28]: 726 nM.

For `N#Cc1cncc(COc2cc(OCc3cccc(-c4cccc5c4cnn5CCCCN4CC[C@@H](O)C4)c3N)c(Cl)cc2CN[C@@H](CO)C(=O)O)c1` [Compound 29], the EC50 is over 1100 nM.

For the compound `CN(C)c1c(COc2cc(OCc3cncc(C#N)c3)c(CN[C@@H](CO)C(=O)O)cc2Cl)cccc1-c1cccc2c1cnn2CCCCN1CC[C@@H](O)C1` [Compound 31], the EC50 was over 10000 nM. Same read-out and setting: the same measure for `N#CCOc1cc(OCc2cccc(-c3cccc4c3cnn4CCCCN3CC[C@@H](O)C3)c2Br)c(Cl)cc1CN[C@@H](CO)C(=O)O` [Compound 34]: 5780 nM. Same read-out and setting: the same measure for `N#CCCCOc1cc(OCc2cccc(-c3cccc4c3cnn4CCCCN3CC[C@@H](O)C3)c2Br)c(Cl)cc1CN[C@@H](CO)C(=O)O` [Compound 35]: 1540 nM; for `N#CCCCCOc1cc(OCc2cccc(-c3cccc4c3cnn4CCCCN3CC[C@@H](O)C3)c2Br)c(Cl)cc1CN[C@@H](CO)C(=O)O` [Compound 36]: 2340 nM; for `N#CCCCCCOc1cc(OCc2cccc(-c3cccc4c3cnn4CCCCN3CC[C@@H](O)C3)c2Br)c(Cl)cc1CN[C@@H](CO)C(=O)O` [Compound 37]: 1920 nM.

Regarding `NC(=O)COc1cc(OCc2cccc(-c3cccc4c3cnn4CCCCN3CC[C@@H](O)C3)c2Br)c(Cl)cc1CN[C@@H](CO)C(=O)O` [Compound 38], the EC50 came out at 7640 nM. Same read-out and setting: under `Cc1cncc(COc2cc(OCc3cccc(-c4cccc5c4cnn5CCCCN4CC[C@@H](O)C4)c3Br)c(Cl)cc2CN[C@@H](CO)C(=O)O)c1` [Compound 39] stands over 10000 nM. Still for that read-out and setting: under `COc1cncc(COc2cc(OCc3cccc(-c4cccc5c4cnn5CCCCN4CC[C@@H](O)C4)c3Br)c(Cl)cc2CN[C@@H](CO)C(=O)O)c1` [Compound 40] stands over 10000 nM; under `O=C(O)[C@H](CO)NCc1cc(Cl)c(OCc2cccc(-c3cccc4c3cnn4CCCCN3CC[C@@H](O)C3)c2Br)cc1OCc1cncc(Cl)c1` [Compound 41], 606 nM; under `Cn1cc(COc2cc(OCc3cccc(-c4cccc5c4cnn5CCCCN4CC[C@@H](O)C4)c3Br)c(Cl)cc2CN[C@@H](CO)C(=O)O)cn1` [Compound 42], over 10000 nM. The same measure, in the same setting: the same measure for `N#Cc1cc(C#N)cc(COc2cc(OCc3cccc(-c4cccc5c4cnn5CCCCN4CC[C@@H](O)C4)c3Br)c(Cl)cc2CN[C@@H](CO)C(=O)O)c1` [Compound 44]: 153 nM.

The same assay, now with this note: PD-1/NFAT-Reporter-Jurkat cells co-cultured with TCR activator/PD-L1-CHO cells; 6 hour incubation; luciferase; calibrated to Atezolizumab 10 nM; read-out: Absolute EC50.
For `N#Cc1cncc(COc2cc(OCc3cccc(-c4cccc5c4cnn5CCCN4CC[C@@H](O)C4)c3Br)c(Cl)cc2CN[C@@H](CO)C(=O)O)c1` [Compound 2], the EC50 stood at 310 nM. The same measure, in the same setting: the same measure for `N#Cc1cncc(COc2cc(OCc3cccc(-c4cccc5c4cnn5CCCCN4CC[C@@H](O)C4)c3Br)c(Cl)cc2CN[C@@H](CO)C(=O)O)c1` [Compound 5]: 241 nM.

In the case of `N#Cc1cncc(COc2cc(OCc3cccc(-c4cccc5c4cnn5CCCCN4CC[C@@H](O)C4)c3Br)c(Cl)cc2CN[C@@H](CO)C(=O)O)c1` [Compound 8], the EC50 was found to be 1160 nM. The same measure, in the same setting: the same measure for `CC(CO)(CO)NCc1cc(Cl)c(OCc2cccc(-c3cccc4c3cnn4CCCN3CC[C@@H](O)C3)c2Br)cc1OCc1cncc(C#N)c1` [Compound 11]: 142 nM; for `N#Cc1cncc(COc2cc(OCc3cccc(-c4cccc5c4cnn5CC4CCC(N5CC[C@@H](O)C5)CC4)c3Br)c(Cl)cc2CN[C@@H](CO)C(=O)O)c1` (stereo partly drawn) [Compound 20]: 876 nM. In the case of `N#Cc1cncc(COc2cc(OCc3cccc(-c4cccc5c4cnn5CCCN4CC[C@@H](O)C4)c3Br)c(Cl)cc2CN[C@@H](CO)C(=O)O)c1` [Compound 32], the EC50 worked out at 724 nM. On the same count and under the same terms, the same measure for `CC(CO)(CO)NCc1cc(Cl)c(OCc2cccc(-c3cccc4c3cnn4CCCN3CC[C@@H](O)C3)c2Br)cc1OCc1cncc(C#N)c1` [Compound 33]: over 370 nM.

Usually EC50 stands for the midpoint of the concentration-response curve.
